From US20170119851A1, “METHODS OF TREATING ANOREXIA” (NOVARTIS AG, priority 2014, published 2017)
No end group written: not given here.

What was measured:
[1] = test system: MC3R and MC4R; conditions: Jackson et al., Biochemistry 41, 7565-7572; cited from earlier work
[2] = target: T1, MC4R (Homo sapiens, UniProt P32245); conditions: Jackson et al., Biochemistry 41, 7565-7572; cited from earlier work
T1 construct: expressed in transfected cells; host or cells: HEK293

[3] = target: T2, MC3R (Homo sapiens, UniProt P41968); conditions: Jackson et al., Biochemistry 41, 7565-7572; cited from earlier work
T2 construct: expressed in transfected cells; host or cells: HEK293

[4] = target: T2, MC3R; test: MC3 cAMP assay, HEK293/MC3R stable cell line (antagonist protocol); type: cell-based; conditions: HEK293/MC3R cells, antagonist protocol against NDP-α-MSH EC80
Protocol: Cells: HEK293/MC3R stable cell line Complete medium: DMEM/F12 1:1 (Gibco, Cat. No. 11039) • 10% FBS (Heat inactivated, Gibco, Cat. No. 10082)× • 200 μg/mL Geneticin (Gibco, Cat. No. 10131) • 2 mM L-glutamine (GIBCO, Cat No. 25030) Flask: 150 cm^2 tissue culture treated flask (Corning, Cat. No. 430825).
• I. Aspirate conditioned medium • II. Wash with 2.5 mL of DPBS (Gibco, Cat. No. 14190) • III. Add 2 mL of 0.25% Trypsin-EDTA (Gibco, Cat. No. 25200-056) • IV. Leave the flask for few minutes in incubator, tap the flask a few time to detach cells. • V. Add 10 mL of the complete medium to stop Trypsin-EDTA treatment and mix it well by pipetting softly a few times to re-suspend clumping cells • VI. Transfer 1.5 ml of cells into a new 150 cm flask containing 20 ml of complete media • VII. Transfer the remaining suspension into a 50 mL centrifuge tube • VIII. Spin down at 1200 rpm for 4 mins. Aspirate supernatant • IX. Add 6 mL of the assay buffer to the tube and re-suspend the cells by softly pipetting • X. Transfer 0.5 mL of the suspension into a sample vial for Vi-cell and add another 0.5 ml of PBS. • XI. Count cell number by using a Vi-cell *Record cell density and viability every time • i. Plate cells at 4K/well in 10 ul/well of assay buffer containing IBMX. • ii. Leave the plate in incubator for ˜30 mins before assay is started on suspension cells. […]

[5] = in vivo; conditions: male, Sprague-Dawley, rat, plasma, iv, 10 nanomoles per rat
Protocol: C) In Vivo Assay Description:
10 nanomoles of conjugate was dissolved in 300 L of PBS (Phosphate buffered saline) to form Dosing solution. Dosing solution (300 M) was administered intravenously to male Sprague-Dawley rats via lateral tail vein (corresponding to a dose 10 nanomoles per rat). Blood was collected via tail snip at prescribed times after dosing and immediately placed on wet ice. These samples were centrifuged at 4 C, with supernatant plasma transferred to a fresh tube for analysis.
For assay, intermediates were diluted to a top standard concentration of 2500 pg/mL and then diluted 2-fold serially to 16 points including a zero dose standard in ELISA sample diluent with bovine serum albumin (BSA).
Plasma samples were diluted 10-fold and then 5-fold serially out to 31,250-fold in ELISA sample diluent with BSA.
Plates were aspirated and blocked with a milk-based blocker at 90 uL/well for 2 hours at RT. All further incubations were carried out at 30 uL/well. Plates were aspirated again and samples and standards were added to the wells for 2 hours at RT. […] The plates were washed again and a HRP-labeled streptavidin reagent was added to the wells for 30 minutes at RT. Plates were washed a final time and a chemiluminescent substrate was added to all wells and plates were read immediately on a Spectramx M5 for light output.
Raw data was organized and analyzed for basic PK parameters.

[6] = target: T1, MC4R; test: HTRF cAMP assay, HEK293/MC4R stable cell line; type: cell-based; conditions: HEK293/MC4R cells, titration against NDP-aMSH
Protocol: A) HTRF cAMP Assay Protocol:
• Flash spindown the 384 well plate at 1200 RPM • Incubated the cells for 15 minutes at an ambient temperature • Add 10 μL of the following reagents into each well based on your sample alignment
• Flash spindown the 384 well plate at 1200 RPM • Incubate the cells for an additional 30 minutes at an ambient temperature • *This incubation time is not so strict. +/−5 min should be OK according to assay development data. • Add 10 μL of cAMP-d2 (diluted 1:4 in the lysis buffer provided in the kit) • *Important!! For Negative control, not cAMP-d2, but just the lysis buffer • Add 10 μL of anti-cAMP Cryptate (diluted 1:4 in the lysis buffer provided in the kit) • Flash spindown at 1200 RPM. • Incubate the assay plate for 45-60 min at an ambient temperature. • Transfer […] of each sample to a tissue culture treated white polystyrene 384-well assay plate (Corning, Cat. No. 3572) • Flash spindown at 1200 RPM. • Measure the fluorescence with a Molecular device M5 or M5e with the following setting.

[7] = in vivo; conditions: male, C57BL, mouse, plasma, 57 ug
Protocol: Male C57BL mice were housed one per cage with normal chow diet and housed in normal light cycle (light on 6:00-18:00).
10 min prior to the treatment, tail blood samples were taken and plasma (10 μl) was obtained. […] After being dosed, the mice remained in the isoflurane chamber for 2 min before placed back in their home cages. […] Tail blood samples were taken at 2, 5, 10, 30 min and 1, 2, 4 and 24 h post dose. Plasma samples were aliquoted and stored at −80° C. until analysis.

[8] = test system: lean Sprague Dawley (SD) rats; test: Food intake after intranasal AgRP in lean rats; type: in vivo
Protocol: The purpose of the following study was to determine if intranasal—(IN) administered AgRP would stimulate food intake in lean Sprague Dawley (SD) rats.
8-12 week-old male SD rats were housed one per cage with a standard chow diet and normal light cycle.
One and two days prior to dosing, 24 h food intake and body weight were measured. Animals were grouped based on body weight and food intake. […] Animals were actively sniffing when compound was administered. After dosing, rats were returned to their home cages. A pre-weighed amount of food was given to the animals after dosing. Food weight was recorded at 4 and 24 hours post dose.
All data were analyzed using an unpaired t-test comparing saline and AgRP. A p value of <0.05 or lower was taken to be statistically significant. All data were analyzed and plotted using GraphPad Prism6 software (San Diego, Calif.).

[9] = test system: C57BL mice; test: Food intake after subcutaneous (SC) AgRP in mice; type: in vivo; conditions: 57 μg AgRP
Protocol: One day prior to treatment, 4-h food intake was measured and animals grouped to match group means of food intake. On the day of the study, animals were dosed via SC injection between 10:30 to 11:00 am. Pre-weighed food was provided to the mice prior to the dark cycle (11:00 am). At 4 and 24 h post dose food intake was measured.
All data were analyzed using an unpaired t-test comparing PBS and AgRP in saline. A p value of <0.05 or lower was taken to be statistically significant. All data were analyzed and plotted using GraphPad Prism6 software (San Diego, Calif.).

[10] = test system: C57BL mice; test: Food intake after intranasal (IN) AgRP in mice; type: in vivo; conditions: 57 μg AgRP in saline
Protocol: One day prior to treatment, 4-h food intake was measured and animals grouped to match group means of food intake. On the day of the study, food was removed at 9:00 am. […] After dosing, the mice remained in the isoflurane chamber in a supine position for 3 min before being returned to their cages. A pre-weighed amount of food was given to the animals before the dark cycle. Food weight was recorded at 4 and 24 hours post dose.
All data were analyzed using an unpaired t-test comparing saline and AgRP in saline. A p value of <0.05 or lower was taken to be statistically significant. All data were analyzed and plotted using GraphPad Prism6 software (San Diego, Calif.).

T1 sequence (P32245 whole entry, species assumed): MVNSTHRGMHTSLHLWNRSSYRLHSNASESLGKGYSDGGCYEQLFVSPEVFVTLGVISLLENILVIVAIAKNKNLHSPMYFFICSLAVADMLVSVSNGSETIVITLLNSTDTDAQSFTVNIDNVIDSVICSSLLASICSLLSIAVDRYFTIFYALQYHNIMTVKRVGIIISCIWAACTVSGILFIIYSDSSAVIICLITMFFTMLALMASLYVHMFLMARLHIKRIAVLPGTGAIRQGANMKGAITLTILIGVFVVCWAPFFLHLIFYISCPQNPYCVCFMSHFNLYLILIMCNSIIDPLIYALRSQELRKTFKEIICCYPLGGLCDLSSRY
T2 sequence (P41968 whole entry, species assumed): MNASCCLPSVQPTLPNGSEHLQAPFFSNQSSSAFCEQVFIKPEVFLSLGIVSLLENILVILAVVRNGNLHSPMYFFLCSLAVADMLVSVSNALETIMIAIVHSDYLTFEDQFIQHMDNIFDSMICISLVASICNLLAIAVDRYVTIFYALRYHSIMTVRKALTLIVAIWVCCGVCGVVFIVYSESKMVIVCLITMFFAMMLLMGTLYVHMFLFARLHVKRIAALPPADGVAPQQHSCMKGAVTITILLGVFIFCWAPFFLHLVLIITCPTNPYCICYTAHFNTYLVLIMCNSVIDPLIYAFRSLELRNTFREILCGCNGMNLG

Compound	inverse agonism compared with AgRP(83-132) [1]	MC4R affinity compared with AgRP(83-132) [2]	MC3R affinity compared with AgRP(83-132) [3]	EC50 [4]	half-life [5]	EC50 [6]	further results
AgRP(87-132): shorter biologically active fragment of AgRP described in Jackson et al.	equivalent inverse agonism	approximately the same	approximately the same				
CCCCCCCCCCCC(CCCCCCCCCCC(=O)O)(C(=O)O)C(=O)NCCOCCOCCOCCOCCOCCOCCOCCOCCOCCOCCOCCOCCOCCOCCOCCOCCOCCOCCOCCOCCOCCOCCOCCOCCC(=O)N[C@@H](CO)C(=O)N[C@@H](CO)C(=O)N[C@@H](CCCNC(=N)N)C(=O)N[C@@H](CCCNC(=N)N)C(=O)N[C@H]1CSSC[C@@H]2NC(=O)[C@@H]3CSSC[C@@H]4NC(=O)[C@H](Cc5ccc(O)cc5)NC(=O)[C@@H]5CSSC[C@H](NC(=O)[C@H](Cc6ccc(O)cc6)NC(=O)[C@H](CSSC[C@H](NC(=O)[C@H](CO)NC(=O)[C@H](CCC(=O)O)NC(=O)[C@H](Cc6c[nH]cn6)NC(=O)[C@H](CC(C)C)NC(=O)[C@H](CCCNC(=N)N)NC(=O)[C@H](C(C)C)NC1=O)C(=O)N[C@@H](CC(C)C)C(=O)NCC(=O)N[C@@H](CCC(N)=O)C(=O)N[C@@H](CCC(N)=O)C(=O)N[C@@H](C(C)C)C(=O)N1CCC[C@H]1C(=O)N3)NC(=O)[C@H]([C@@H](C)O)NC(=O)[C@H](C)NC(=O)[C@H](CSSC[C@@H](C(=O)N[C@@H](CO)C(=O)N[C@@H](CCCNC(=N)N)C(=O)N[C@H](C(=O)O)[C@@H](C)O)NC(=O)[C@@H]1CCCN1C(=O)[C@H](CC(N)=O)NC(=O)[C@H](CCSC)NC(=O)[C@H](C)NC(=O)[C@H]([C@@H](C)O)NC(=O)CNC(=O)[C@H](CC(C)C)NC(=O)[C@H](CCCCN)NC(=O)[C@H](CCCNC(=N)N)NC4=O)NC(=O)[C@@H]1CCCN1C(=O)[C@H](CC(=O)O)NC2=O)C(=O)N[C@@H](CCCNC(=N)N)C(=O)N[C@@H](Cc1ccccc1)C(=O)N[C@@H](Cc1ccccc1)C(=O)N[C@@H](CC(N)=O)C(=O)N[C@@H](C)C(=O)N[C@@H](Cc1ccccc1)C(=O)N5 (some centres unmarked) [Example 5A]				7 nM	20 h	18 nM	
CCCCCCCCCCCC(CCCCCCCCCCC(=O)O)(C(=O)O)C(=O)NCCOCCOCCOCCOCCOCCOCCOCCOCCOCCOCCOCCOCCOCCOCCOCCOCCOCCOCCOCCOCCOCCOCCOCCOCCC(=O)NCCCC[C@@H]1NC(=O)[C@H](CCCNC(=N)N)NC(=O)[C@@H]2CSSC[C@@H]3NC(=O)[C@@H]4CCCN4C(=O)[C@H](C(C)C)NC(=O)[C@H](CCC(N)=O)NC(=O)[C@H](CCC(N)=O)NC(=O)CNC(=O)[C@H](CC(C)C)NC(=O)[C@@H]4CSSC[C@H](NC(=O)[C@H]([C@@H](C)O)NC(=O)[C@H](C)NC(=O)[C@H](CSSC[C@@H](C(=O)N[C@@H](CO)C(=O)N[C@@H](CCCNC(=N)N)C(=O)N[C@H](C(=O)O)[C@@H](C)O)NC(=O)[C@@H]5CCCN5C(=O)[C@H](CC(N)=O)NC(=O)[C@H](CCSC)NC(=O)[C@H](C)NC(=O)[C@H]([C@@H](C)O)NC(=O)CNC(=O)[C@H](CC(C)C)NC1=O)NC(=O)[C@@H]1CCCN1C(=O)[C@H](CC(=O)O)NC(=O)[C@H](CSSC[C@H](NC(=O)[C@H](CCCNC(=N)N)NC(=O)[C@H](CCCNC(=N)N)NC(=O)[C@H](CO)NC(=O)[C@H](CO)NC(=O)CCOCCOCCOCCOCCOCCOCCOCCOCCOCCOCCOCCOCCOCCOCCOCCOCCOCCOCCOCCOCCOCCOCCOCCOCCNC(=O)C(CCCCCCCCCCC)(CCCCCCCCCCC(=O)O)C(=O)O)C(=O)N[C@@H](C(C)C)C(=O)N[C@@H](CCCNC(=N)N)C(=O)N[C@@H](CC(C)C)C(=O)N[C@@H](Cc1c[nH]cn1)C(=O)N[C@@H](CCC(=O)O)C(=O)N[C@@H](CO)C(=O)N4)NC3=O)C(=O)N[C@@H](Cc1ccc(O)cc1)C(=O)N[C@H]1CSSC[C@H](NC(=O)[C@H](Cc3ccccc3)NC(=O)[C@H](C)NC(=O)[C@H](CC(N)=O)NC(=O)[C@H](Cc3ccccc3)NC(=O)[C@H](Cc3ccccc3)NC(=O)[C@H](CCCNC(=N)N)NC1=O)C(=O)N[C@@H](Cc1ccc(O)cc1)C(=O)N2 (some centres unmarked) [Example 5B]				65 nM	52 h	167 nM	
CSCC[C@@H]1NC(=O)[C@H](C)NC(=O)[C@H]([C@@H](C)O)NC(=O)CNC(=O)[C@H](CC(C)C)NC(=O)[C@H](CCCCN)NC(=O)[C@H](CCCNC(=N)N)NC(=O)[C@@H]2CSSC[C@@H]3NC(=O)[C@@H]4CCCN4C(=O)[C@H](C(C)C)NC(=O)[C@H](CCC(N)=O)NC(=O)[C@H](CCC(N)=O)NC(=O)CNC(=O)[C@H](CC(C)C)NC(=O)[C@@H]4CSSC[C@H](NC(=O)[C@H]([C@@H](C)O)NC(=O)[C@H](C)NC(=O)[C@H](CSSC[C@@H](C(=O)N[C@@H](CO)C(=O)N[C@@H](CCCNC(=N)N)C(=O)N[C@H](C(=O)O)[C@@H](C)O)NC(=O)[C@@H]5CCCN5C(=O)[C@H](CC(N)=O)NC1=O)NC(=O)[C@@H]1CCCN1C(=O)[C@H](CC(=O)O)NC(=O)[C@H](CSSC[C@H](NC(=O)[C@H](CCCNC(=N)N)NC(=O)[C@H](CCCNC(=N)N)NC(=O)[C@H](CO)NC(=O)[C@@H](N)CO)C(=O)N[C@@H](C(C)C)C(=O)N[C@@H](CCCNC(=N)N)C(=O)N[C@@H](CC(C)C)C(=O)N[C@@H](Cc1c[nH]cn1)C(=O)N[C@@H](CCC(=O)O)C(=O)N[C@@H](CO)C(=O)N4)NC3=O)C(=O)N[C@@H](Cc1ccc(O)cc1)C(=O)N[C@H]1CSSC[C@H](NC(=O)[C@H](Cc3ccccc3)NC(=O)[C@H](C)NC(=O)[C@H](CC(N)=O)NC(=O)[C@H](Cc3ccccc3)NC(=O)[C@H](Cc3ccccc3)NC(=O)[C@H](CCCNC(=N)N)NC1=O)C(=O)N[C@@H](Cc1ccc(O)cc1)C(=O)N2 [AgRP, Agouti-Related Peptide]							Cmax ([7]; other: intranasal (IN)): 97.6 ng/mL; Tmax ([7]; other: intranasal (IN)): 1 h; Cmax ([7]; sc): 2810 ng/mL; Tmax ([7]; sc): 0.5 h; food intake vs saline (unpaired t-test) ([8]; 57 μg AgRP, 24 h post dose): significant increase; food intake vs saline (unpaired t-test) ([8]; 171 μg AgRP, 4 h post dose): significant effect; food intake vs saline (unpaired t-test) ([8]; 171 μg AgRP, 24 h post dose): significant increase; food intake vs PBS (unpaired t-test) ([9]; 4 h post dose): did not resulted in a significant effect; food intake vs PBS (unpaired t-test) ([9]; 24 h post dose): did not resulted in a significant effect; food intake vs saline (unpaired t-test) ([10]; 4 h post dose): significant effect; food intake vs saline (unpaired t-test) ([10]; 24 h post dose): significant effect
AgRP (87-120): shorter biologically active fragment of AgRP described in Jackson et al. (CVRLHESCLGQQVPCCDPCATCYCRFFNAFCYCR; also: disulfide pairing of this fragment not given here, 9 Cys (C105 partner C129 absent))	equivalent inverse agonism	approximately the same	approximately the same				
